Laboratory results reported in paper PMC5869419 (Journal of Natural Products, 2018).
Read-outs that look alike come from different tables or passages of the source.

What was measured:
[1] = tested on: H3N2 influenza virus A/Hong Kong/68 (HK/68); experiment: CPE inhibition assay with HK/68 in MDCK cells; format: cell-based; conditions: for selectivity index IAV HK/68 [CC50/IC50]: CC50 in MDCK cells / IC50 HK/68; for IC50: Influenza A virus; for anti-influenza virus activity (in words): HK/68 and Jena/8178, CPE inhibition in MDCK cells
in vitro = conditions: dog
[2] = tested on: H1N1 influenza virus A/Jena/8178/09 (Jena/8178); experiment: CPE inhibition assay with Jena/8178 in MDCK cells; format: cell-based; conditions: for selectivity index IAV Jena/8178 [CC50/IC50]: CC50 in MDCK cells / IC50 Jena/8178; for IC50: Influenza A virus, H1N1, MDCK, 48 h, read-out: IC50 of CPE IAV Jena/8178
[3] = HK/68 and Jena/8178 together, CPE inhibition in MDCK cells
[4] = H3N2, MDCK, 48 h, read-out: IC50 of CPE IAV HK/68
[5] = H3N2, HK/68 and Jena/8178 together, CPE inhibition in MDCK cells, read-out: IC50 values, anti-influenza virus activity stated for both strains together

| SMILES | selectivity index IAV HK/68 [CC50/IC50] [1] | IC50 values, anti-influenza virus activity stated for both strains together [1, 3] | IC50 [1, 4] | CC50 at 72 h (in vitro) | selectivity index IAV Jena/8178 [CC50/IC50] [2] | IC50 [2] | CC50 (in vitro) | IC50 [1, 5] | anti-influenza virus activity (in words) [1] | CC50 in MDCK cells (MDCK cells) |
| --- | --- | --- | --- | --- | --- | --- | --- | --- | --- | --- |
| C[C@H]1O[C@@H](O[C@H]2[C@H](O)[C@@H](O[C@@H]3OC[C@@H](O)[C@H](O)[C@H]3O)[C@H](O[C@H]3[C@H](O)C[C@]4(C)[C@H]5CC=C6[C@@H]7CC(C)(C)CC[C@]7(C(=O)O)CC[C@@]6(C)[C@]5(C)CC[C@H]4C3(C)C)O[C@@H]2CO)[C@@H](O)[C@@H](O)[C@@H]1O [Compound 5, 3-O-β-D-Xylopyranosyl-(1→2)-[α-L-rhamnopyranosyl-(1→4)]-β-D-glucopyranosylmaslinic acid] | 9 | low micromolar range | 1.7 ± 0.07 µM | 15.5 ± 1.69 µM |  |  |  |  |  |  |
| C=C(C)[C@@H]1CC[C@]2(C(=O)O)CC[C@]3(CO)[C@H](CC[C@@H]4[C@@]5(C)C[C@@H](O)[C@H](O)C(C)(C)[C@@H]5CC[C@]43C)[C@@H]12 [27-hydroxyalphitolic acid] |  |  |  |  | >4 | 26.5 ± 4.71 µM | > 100 µM |  |  |  |
| C[C@H]1O[C@H](O[C@@H]2CO[C@@H](O[C@H]3CC[C@]4(C)[C@H]5CC=C6[C@@H]7CC(C)(C)[C@H](OC(=O)/C=C/c8ccccc8)C[C@]7(C(=O)O)CC[C@@]6(C)[C@]5(C)CC[C@H]4C3(C)C)[C@H](O[C@@H]3OC[C@@H](O)[C@H](O)[C@H]3O[C@H]3O[C@H](C)[C@@H](O)[C@H](O)[C@@H]3O)[C@H]2O)[C@@H](O)[C@@H](O)[C@@H]1O [Compound 8, 3-O-α-L-Rhamnopyranosyl-(1 →2)-β-D-xylopyranosyl-(1 →2)-[α-L-rhamnopyranosyl-(1 →4)]-β-D-xylopyranosyl-21-cinnamoyloxyoleanolic acid] | 7 |  | 0.17 ± 0.18 µM | 1.2 ± 0.1 µM | 7 | 0.16 ± 0.07 µM |  | 0.05 to 0.27 µM |  |  |
| C[C@H]1O[C@H](O[C@H]2[C@H](O[C@H]3[C@H](O[C@H]4CC[C@]5(C)[C@H]6CC=C7[C@@H]8CC(C)(C)[C@H](OC(=O)/C=C/c9ccccc9)C[C@]8(C(=O)O)CC[C@@]7(C)[C@]6(C)CC[C@H]5C4(C)C)OC[C@@H](O)[C@@H]3O)OC[C@@H](O)[C@@H]2O)[C@@H](O)[C@@H](O)[C@@H]1O [Compound 7, 3-O-α-L-Rhamnopyranosyl-(1→2)-β-D-xylopyranosyl-(1→2)-β-D-xylopyranosyl-21-cinnamoyloxyoleanolic acid] | 31 |  | 0.05 ± 0.02 µM | 1.5 ± 0.8 µM | 6 | 0.27 ± 0.13 µM |  | 0.05 to 0.27 µM |  |  |
| C=C(C)[C@@H]1CC[C@]2(C(=O)O)CC[C@]3(C)[C@H](CC[C@@H]4[C@@]5(C)C[C@@H](O)[C@H](O)C(C)(C)[C@@H]5CC[C@]43C)[C@@H]12 [alphitolic acid] |  |  |  | 49.9 ± 6.68 µM |  |  |  |  |  |  |
| C=C(C)[C@@H]1CC[C@]2(C(=O)O)CC[C@]3(C)[C@H](CC[C@@H]4[C@@]5(C)C[C@@H](O)[C@H](O[C@@H]6O[C@H](CO)[C@@H](O)[C@H](O)[C@H]6O[C@@H]6OC[C@@H](O)[C@H](O)[C@H]6O)C(C)(C)[C@@H]5CC[C@]43C)[C@@H]12 [Compound 1, 3-O-β-D-Xylopyranosyl-(1→2)-β-D-glucopyranosylalphitolic acid] |  |  |  |  |  | 38.6 ± 15.7 µM | > 100 µM |  | only weak or no anti-influenza virus activity |  |
| CC1(C)CC[C@]2(C(=O)O)CC[C@]3(C)C(=CC[C@@H]4[C@@]5(C)C[C@@H](O)[C@H](O)C(C)(C)[C@@H]5CC[C@]43C)[C@@H]2C1 [maslinic acid] |  |  |  | 23.3 ± 2.93 µM |  |  |  |  |  |  |
| C=C(C)[C@@H]1CC[C@]2(C(=O)O)CC[C@]3(C)[C@H](CC[C@@H]4[C@@]5(C)C[C@@H](O)[C@H](O[C@@H]6O[C@H](CO)[C@@H](O[C@@H]7O[C@H](C)[C@@H](O)[C@H](O)[C@@H]7O)[C@H](O)[C@H]6O[C@@H]6OC[C@@H](O)[C@H](O)[C@H]6O)C(C)(C)[C@@H]5CC[C@]43C)[C@@H]12 [Compound 2, 3-O-β-D-Xylopyranosyl-(1→2)-[α-L-rhamnopyranosyl-(1→4)]-β-D-glucopyranosylalphitolic acid] | 11 |  | 1.1 ± 0.44 µM | 10.4 ± 0.52 µM | 6 | 1.9 ± 0.08 µM |  |  |  |  |
| CCOC(=O)C1=C[C@@H](OC(CC)CC)[C@H](NC(C)=O)[C@@H](N)C1 [oseltamivir, reference compound] |  |  | 0.003 ± 0.001 µM |  |  | 0.064 ± 0.013 µM |  |  |  |  |
| CC1(C)C[C@H]2C3=CC[C@@H]4[C@@]5(C)CC[C@H](O)C(C)(C)[C@@H]5CC[C@@]4(C)[C@]3(C)CC[C@@]2(C(=O)O)C[C@H]1OC(=O)/C=C/c1ccccc1 [21-cinnamoyloxy-oleanolic acid] |  |  | 8.9 ± 3.95 µM | > 100 µM |  | 6.8 ± 4.12 µM |  | 7 to 11 µM |  | lost their cytotoxicity |
| C=C(C)[C@@H]1CC[C@]2(C(=O)O)CC[C@]3(CO)[C@H](CC[C@@H]4[C@@]5(C)C[C@@H](O)[C@H](O[C@@H]6O[C@H](CO)[C@@H](O)[C@H](O)[C@H]6O[C@@H]6OC[C@@H](O)[C@H](O)[C@H]6O)C(C)(C)[C@@H]5CC[C@]43C)[C@@H]12 [Compound 3, 3-O-β-D-Xylopyranosyl-(1→2)-β-D-glucopyranosyl-27-hydroxyalphitolic acid] |  |  |  |  |  |  | > 100 µM |  | only weak or no anti-influenza virus activity |  |
| C[C@H]1O[C@@H](O[C@H]2[C@H](O)[C@@H](O[C@@H]3OC[C@@H](O)[C@H](O)[C@H]3O)[C@H](O[C@H]3[C@H](O)C[C@]4(C)[C@H]5CC=C6[C@@H]7CC(C)(C)[C@H](OC(=O)/C=C/c8ccccc8)C[C@]7(C(=O)O)CC[C@@]6(C)[C@]5(C)CC[C@H]4C3(C)C)O[C@@H]2CO)[C@@H](O)[C@@H](O)[C@@H]1O [Compound 6, 3-O-β-D-Xylopyranosyl-(1→2)-[α-L-rhamnopyranosyl-(1→4)]-β-D-glucopyranosyl-21-cinnamoyloxymaslinic acid] | 3 | low micromolar range | 1.8 ± 0.23 µM | 5.8 ± 0.69 µM | 3 | 1.8 ± 0.03 µM |  |  |  |  |
| C=C(C)[C@@H]1CC[C@]2(C(=O)O)CC[C@]3(CO)[C@H](CC[C@@H]4[C@@]5(C)C[C@@H](O)[C@H](O[C@@H]6O[C@H](CO)[C@@H](O)[C@H](O)[C@H]6O[C@@H]6O[C@H](CO)[C@@H](O)[C@H](O)[C@H]6O)C(C)(C)[C@@H]5CC[C@]43C)[C@@H]12 [Compound 4, 3-O-β-D-Glucopyranosyl-(1→2)-β-D-glucopyranosyl-27-hydroxyalphitolic acid] |  |  |  |  | >2 | 43 ± 11.8 µM | > 100 µM |  | only weak or no anti-influenza virus activity |  |
| CC1(C)C[C@H]2C3=CC[C@@H]4[C@@]5(C)C[C@@H](O)[C@H](O)C(C)(C)[C@@H]5CC[C@@]4(C)[C@]3(C)CC[C@@]2(C(=O)O)C[C@H]1OC(=O)/C=C/c1ccccc1 [21-cinnamoyloxy-maslinic acid] |  |  | 11.3 ± 7.35 µM | > 100 µM |  | 6.9 ± 2.97 µM |  | 7 to 11 µM |  | lost their cytotoxicity |
